# Assay results: the supplement of paper PMC11451515
# Tested on: SEM cells
# Experiment: cell viability relative to DMSO control; higher = less cytotoxic
# Details: 48 h
# Summary of the method: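 Cells were incubated for 48 h at 37°C before CellTiter-Glo One luminescence was read. The cells were NOMO1 or SEM (500 cells/well) or P12-Ichikawa (1000 cells/well) leukemia cells, adapted for at least four passages in each medium and seeded in 1536-well plates (5 μl). Dosing used library compounds in DMSO applied by pin over 11 threefold points, 47 μM to 0.79 nM. Viability is the per-plate percentage of DMSO wells, with cell-free wells as background.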
# [1] = HPLM + 10% dialyzed FBS, 0.000781 µM
# [2] = HPLM + 10% dialyzed FBS, 0.00234 µM
# [3] = HPLM + 10% dialyzed FBS, 0.00702 µM
# [4] = HPLM + 10% dialyzed FBS, 0.0211 µM
# [5] = HPLM + 10% dialyzed FBS, 0.0632 µM
# [6] = HPLM + 10% dialyzed FBS, 0.19 µM
# [7] = HPLM + 10% dialyzed FBS, 0.569 µM
# [8] = HPLM + 10% dialyzed FBS, 1.71 µM
# [9] = HPLM + 10% dialyzed FBS, 5.12 µM
# [10] = HPLM + 10% dialyzed FBS, 15.4 µM
# [11] = HPLM + 10% dialyzed FBS, 46.1 µM
# [12] = RPMI 5 mM glucose + 10% FBS, 0.000781 µM
# [13] = RPMI 5 mM glucose + 10% FBS, 0.00234 µM
# [14] = RPMI 5 mM glucose + 10% FBS, 0.00702 µM
# [15] = RPMI 5 mM glucose + 10% FBS, 0.0211 µM
# [16] = RPMI 5 mM glucose + 10% FBS, 0.0632 µM
# [17] = RPMI 5 mM glucose + 10% FBS, 0.19 µM
# [18] = RPMI 5 mM glucose + 10% FBS, 0.569 µM
# [19] = RPMI 5 mM glucose + 10% FBS, 1.71 µM
# [20] = RPMI 5 mM glucose + 10% FBS, 5.12 µM
# [21] = RPMI 5 mM glucose + 10% FBS, 15.4 µM
# [22] = RPMI 5 mM glucose + 10% FBS, 46.1 µM
# [23] = RPMI 5 mM glucose + 10% dialyzed FBS, 0.000781 µM
# [24] = RPMI 5 mM glucose + 10% dialyzed FBS, 0.00234 µM
# [25] = RPMI 5 mM glucose + 10% dialyzed FBS, 0.00702 µM
# [26] = RPMI 5 mM glucose + 10% dialyzed FBS, 0.0211 µM
# [27] = RPMI 5 mM glucose + 10% dialyzed FBS, 0.0632 µM
# [28] = RPMI 5 mM glucose + 10% dialyzed FBS, 0.19 µM
# [29] = RPMI 5 mM glucose + 10% dialyzed FBS, 0.569 µM
# [30] = RPMI 5 mM glucose + 10% dialyzed FBS, 1.71 µM
# [31] = RPMI 5 mM glucose + 10% dialyzed FBS, 5.12 µM
# [32] = RPMI 5 mM glucose + 10% dialyzed FBS, 15.4 µM
# [33] = RPMI 5 mM glucose + 10% dialyzed FBS, 46.1 µM
SMILES,cell viability [1] [%],cell viability [2] [%],cell viability [3] [%],cell viability [4] [%],cell viability [5] [%],cell viability [6] [%],cell viability [7] [%],cell viability [8] [%],cell viability [9] [%],cell viability [10] [%],cell viability [11] [%],cell viability [12] [%],cell viability [13] [%],cell viability [14] [%],cell viability [15] [%],cell viability [16] [%],cell viability [17] [%],cell viability [18] [%],cell viability [19] [%],cell viability [20] [%],cell viability [21] [%],cell viability [22] [%],cell viability [23] [%],cell viability [24] [%],cell viability [25] [%],cell viability [26] [%],cell viability [27] [%],cell viability [28] [%],cell viability [29] [%],cell viability [30] [%],cell viability [31] [%],cell viability [32] [%],cell viability [33] [%]
COc1cccc(OC)c1-c1cc(C(=O)NC2(C(=O)O)C3CC4CC(C3)CC2C4)nn1-c1ccnc2cc(Cl)ccc12 (centres undefined),107,94.1,96.4,109,115,112,117,102,104,97.8,112,89.7,98,106,92.4,107,98.4,104,110,117,92.6,79.2,95.2,118,109,126,96.3,119,117,102,116,118,113
CCOc1cc(C(=O)Nc2ccc(Cl)c(-c3nc4ccccc4[nH]3)c2)cc(OCC)c1OCC,70.1,76,91.4,92.8,92,87.5,89.3,91,85.2,17.4,62.4,76.8,74.7,93.6,92.7,94.2,94.4,109,94.5,93.5,9.91,48.1,73.9,77.1,91.8,95.4,85.6,93.5,92.6,86.6,77.7,16.8,46.1
Cc1ccc(C(=O)Nc2ccc([S+](=O)([O-])O)c3cc([S+](=O)([O-])O)cc([S+](=O)([O-])O)c23)cc1NC(=O)c1cccc(NC(=O)Nc2cccc(C(=O)Nc3cc(C(=O)Nc4ccc([S+](=O)([O-])O)c5cc([S+](=O)([O-])O)cc([S+](=O)([O-])O)c45)ccc3C)c2)c1,96.8,105,96.2,100,115,91.4,101,93.8,68.5,44.4,33.1,109,128,120,121,113,112,100,115,52.7,21.2,22.7,85,97.2,100,88.6,98.4,86,94.9,86.5,55.1,23.9,23.7
